These results are taken from patent US20180113128A1, “DETECTION OF URINARY TRACT INFECTIONS” (ISI Life Sciences, Inc., priority 2016, published 2018).

Holding throughout (type): biochemical
For data set [1], the system named is urease. As to the kind of experiment: In vitro test demonstrating breakage of ester bonds (urea buffers with or without urease, 96 well). As to conditions: ten minutes. The text has this:
Two different fluorescein diesters were used in this example. These diesters were fluorescein dibutyrate and fluorescein dioctanoate both of which are commercially available or can be prepared by reacting fluorescein under conventional esterification techniques using as acid anhydrides, acid chlorides, etc. as described herein. The structure of fluorescein diesters is as set forth below:
A. Fluorescein dibutryate (each R is —CH2CH2CH2CH3) B. Fluorescein dioctanoate (each R is —CH2CH2CH2CH2CH2CH3) • The assay was conducted with the following: 1. Assay Buffer A: 0.5 M Urea in phosphate buffered saline, pH 7 (freshly prepared from solid urea). 2. Assay Buffer B: Assay Buffer A plus 0.05% bovine serum albumin 3. Urease: 2000 u/mL in phosphate buffered saline (PBS). This equates to about 40 mg per mL. 4. Fluorescein diesters are dissolved in water with 1% DMSO.
100 microliters of PBS, Assay Buffer A, or Assay Buffer B were added to wells of a 96 well cluster. • 10 microliters of urease were added to the indicated wells. • 5 microliters of each diester were added to each well.
The wells were monitored for ten minutes at which time a photograph was taken.

Data set [2] relates to urease. Put plainly: Second in vitro test: pro-label in normal human urine with or without urease. As to conditions: room temperature, approximately 10 minutes. The protocol: In this example, fluorescein dioctanoate (a non-fluorescent derivative of fluorescein and a pro-label) was combined with normal urine recently obtained from a volunteer. The urine was divided into two containers. The first container (A) contained fluorescein dioctanoate added as a 1% solution in DMSO. The second container (B) additionally contained urease.
Both samples were maintained at room temperature for approximately 10 minutes and the samples were then evaluated for fluorescence. As is well known, the fluorescence emitted by fluorescein is typically a greenish-yellow color.

The next data set relates to leukocyte esterases. Put plainly: Fourth in vitro test: pro-label contacted with blood lysate. The text has this: Certain E. coli species are a common cause of UTIs. […] So, unlike Example 3 where E. coli was used in the absence of blood components, this example evaluates the results of whether a blood lysate would deacylate the ester bonds of pro-labels. Specifically, this example evaluates if these esterases are present in sufficient quantities in the lysate to effect transformation of the pro-labels to labels by deacylation. Accordingly, fluorescein dioctanoate (a non-fluorescent pro-label) was contacted with a blood lysate. A control composition (phosphate buffered saline) containing the same pro-label was prepared. […] The first column contains the control and the second column contains the pro-labeled solution. This figure is taken at time equal to zero. […] As before, the left column is control and the right column is the blood lysate in the presence of fluorescein dioctanoate. […] As to the greenish tinge around the control test tubes, it is postulated that this is the result of reflection from the bright green fluorescence of the adjacent tubes (not shown). Those tubes were removed from FIG. 4 so as to allow a direct comparison between the control and fluorescein dioctanoate.

The mark [3] stands for this setting: Buffer A: 0.5 M urea in PBS pH 7, no urease.
Where [4] appears, read: Buffer B: Buffer A plus 0.05% bovine serum albumin, no urease.

With `CCCC(=O)Oc1ccc2c(c1)Oc1cc(OC(=O)CCC)ccc1C21OC(=O)c2ccccc21` [fluorescein dibutyrate], the “fluorescence (photograph)” value with urease [1] (setting [3]) is on record as “no fluorescence”; in the data set on urease [1] (Buffer B+urease), “fluorescence”; in the data set with urease [1] (setting [4]), “minimal fluorescence”.
For `CCCCCCCC(=O)Oc1ccc2c(c1)Oc1cc(OC(=O)CCCCCCC)ccc1C21OC(=O)c2ccccc21` [fluorescein dioctanoate], the results for the “fluorescence (photograph)” value in the data set on urease [1] (setting [3]), in the data set with urease [1] (Buffer B+urease) and in the data set with urease [1] (setting [4]) were “no fluorescence”, “fluorescence” and “no to substantially no fluorescence”, respectively. The “fluorescein fluorescence in urine sample” value is “presence of fluorescein fluorescence” with urease [2] (normal human urine plus urease (container B)) and “lack of fluorescein fluorescence” with urease [2] (normal human urine, no urease (container A)). For the same compound, the “fluorescence upon application of UV light” value is listed as “evidenced fluorescence” in the data set with leukocyte esterases (blood lysate, incubation for 90 minutes) and “did not” in the data set on leukocyte esterases (control composition (phosphate buffered saline) containing the same pro-label, 90 minutes).
